According to PubChem BioAssay AID1963864 (Molecular Pharmacology Branch, DTP, NCI, 2024):

Tested on: KRAS PDC multicell spheroid viability
Experiment: Anticancer human tumor 521955-158-R6-J3-PDC patient-derived pancreatic carcinoma cell line growth inhibition [KRAS2]
Details: for IC50: curve of first compound; for viability, T/C: stronger effect = lower value
How it was run: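 Combination screen of spheroid viability in tumor-cell co-cultures with endothelial (HUVEC) and mesenchymal stem cell stroma. Each agent was tested in half-log dilutions, topping at clinical Cmax or at 10 microM without a known Cmax.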

[1] = second compound 0.1 µM, first compound 0.0316 µM
[2] = second compound 0.1 µM, first compound 0.1 µM
[3] = second compound 0.1 µM, first compound 0.316 µM
[4] = second compound 0.1 µM, first compound 1 µM
[5] = second compound 0.1 µM, first compound 3.16 µM
[6] = second compound 0.1 µM, first compound 10 µM
[7] = second compound 0.316 µM, first compound 0.0316 µM
[8] = second compound 0.316 µM, first compound 0.1 µM
[9] = second compound 0.316 µM, first compound 0.316 µM
[10] = second compound 0.316 µM, first compound 1 µM
[11] = second compound 0.316 µM, first compound 3.16 µM
[12] = second compound 0.316 µM, first compound 10 µM
[13] = second compound 1 µM, first compound 0.0316 µM
[14] = second compound 1 µM, first compound 0.1 µM
[15] = second compound 1 µM, first compound 0.316 µM
[16] = second compound 1 µM, first compound 1 µM
[17] = second compound 1 µM, first compound 3.16 µM
[18] = second compound 1 µM, first compound 10 µM
[19] = second compound 3.16 µM, first compound 0.0316 µM
[20] = second compound 3.16 µM, first compound 0.1 µM
[21] = second compound 3.16 µM, first compound 0.316 µM
[22] = second compound 3.16 µM, first compound 1 µM
[23] = second compound 3.16 µM, first compound 3.16 µM
[24] = second compound 3.16 µM, first compound 10 µM
[25] = second compound 10 µM, first compound 0.0316 µM
[26] = second compound 10 µM, first compound 0.1 µM
[27] = second compound 10 µM, first compound 0.316 µM
[28] = second compound 10 µM, first compound 1 µM
[29] = second compound 10 µM, first compound 3.16 µM
[30] = second compound 10 µM, first compound 10 µM
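Note: drug exposure lasted seven days.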
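Throughout, for viability, T/C: 100% = DMSO vehicle wells and lower means fewer viable cells.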

| Compound | IC50 (second compound 0.1 µM) | IC50 (second compound 0.316 µM) | IC50 (second compound 1 µM) | IC50 (second compound 3.16 µM) | IC50 (second compound 10 µM) | viability, T/C [1] | viability, T/C [2] | viability, T/C [3] | viability, T/C [4] | viability, T/C [5] | viability, T/C [6] | viability, T/C [7] | viability, T/C [8] | viability, T/C [9] | viability, T/C [10] | viability, T/C [11] | viability, T/C [12] | viability, T/C [13] | viability, T/C [14] | viability, T/C [15] | other results |
| --- | --- | --- | --- | --- | --- | --- | --- | --- | --- | --- | --- | --- | --- | --- | --- | --- | --- | --- | --- | --- | --- |
| COC(=O)c1ccc2c(C(=Nc3ccc(N(C)C(=O)CN4CCN(C)CC4)cc3)c3ccccc3)c(O)[nH]c2c1 + COc1cc2nc(C)nc(NC(C)c3cc(N)cc(C(F)(F)F)c3)c2cc1OC1CCOC1 | 3.01 µM | 3.53 µM | 2.41 µM | 1.72 µM | < 0.0316 µM | 90% | 95.7% | 107% | 115% | 47.6% | 0.24% | 93.9% | 90.3% | 91.4% | 122% | 55.2% | 0.21% | 84% | 94.4% | 107% | viability, T/C [16]: 115%; viability, T/C [17]: 34.5%; viability, T/C [18]: 1.78%; viability, T/C [19]: 75.8%; viability, T/C [20]: 75.5%; viability, T/C [21]: 108%; viability, T/C [22]: 101%; viability, T/C [23]: 4.81%; viability, T/C [24]: 0.15%; viability, T/C [25]: 42%; viability, T/C [26]: 29.7%; viability, T/C [27]: 6.94%; viability, T/C [28]: 2.96%; viability, T/C [29]: 2.48%; viability, T/C [30]: 0.99% |
| COc1cc(Nc2ncc3c(n2)-c2ccc(Cl)cc2C(c2c(F)cccc2OC)=NC3)ccc1C(=O)O + COc1cc2nc(C)nc(NC(C)c3cc(N)cc(C(F)(F)F)c3)c2cc1OC1CCOC1 | > 10 µM | > 10 µM | > 10 µM | > 10 µM | < 0.0316 µM | 102% | 88.3% | 89% | 88.9% | 97.1% | 90.4% | 93.4% | 86.3% | 87.4% | 99.2% | 96.8% | 88.6% | 80.7% | 84.4% | 87.7% | viability, T/C [16]: 89.3%; viability, T/C [17]: 95.3%; viability, T/C [18]: 83.4%; viability, T/C [19]: 76%; viability, T/C [20]: 72.5%; viability, T/C [21]: 82.1%; viability, T/C [22]: 78.5%; viability, T/C [23]: 80.6%; viability, T/C [24]: 71.2%; viability, T/C [25]: 68.9%; viability, T/C [26]: 23.1%; viability, T/C [27]: 30%; viability, T/C [28]: 31.2%; viability, T/C [29]: 56.8%; viability, T/C [30]: 23% |
| COc1cc2nccc(Oc3ccc(NC(=O)C4(C(=O)Nc5ccc(F)cc5)CC4)cc3)c2cc1OC + COc1cc2nc(C)nc(NC(C)c3cc(N)cc(C(F)(F)F)c3)c2cc1OC1CCOC1 | > 10 µM | > 10 µM | > 10 µM | > 10 µM | < 0.0316 µM | 89.3% | 91.9% | 78.7% | 91.3% | 101% | 90.2% | 93.3% | 97.2% | 90.1% | 90.9% | 97.5% | 95.2% | 79.8% | 84.4% | 83.5% | viability, T/C [16]: 88.1%; viability, T/C [17]: 103%; viability, T/C [18]: 78.7%; viability, T/C [19]: 70.5%; viability, T/C [20]: 73.9%; viability, T/C [21]: 70.8%; viability, T/C [22]: 72.8%; viability, T/C [23]: 89.5%; viability, T/C [24]: 53.6%; viability, T/C [25]: 49.1%; viability, T/C [26]: 11.8%; viability, T/C [27]: 18.1%; viability, T/C [28]: 27.6%; viability, T/C [29]: 2.28%; viability, T/C [30]: 1.88% |
